Measured values taken from patent US20240115731A1, “METHOD OF DELIVERING MRNA IN VIVO” (PCI Biotech AS, priority 2021, published 2024).

Tests used:
[1] = system: thigh muscle of C57BL/6 mice; assay: Intramuscular naked mRNA delivery, IVIS bio-luminescence imaging of injection sites; format: in vivo
Excerpt: (§1) Female mice of the strain C57BL/6 (Charles River) were used. Animal identification and conditions of housing, acclimatisation, environment, diet and water was in accordance with the current Standard Operating Procedures at the animal facilities at Oslo University Hospital—The Radium Hospital. Age and weight at start of dosing: 5-6 weeks, 18-20 g. The injection area was shaved before illumination.
(§2) Firefly luciferase mRNA (L-7202—with modified base 5-methoxyuridine (5 moU), and with the TriLink CleanCap™ modification as the capping structure, purchased from TriLink Biotechnologies, San Diego, USA) was used.
(§3) TPCS2a (Amphinex®, PCI Biotech AS, Norway) was used mixed in a volume of 20 μl PBS (e.g. using a 0.000015 μg/μl solution for a 0.0003 μg dose).
(§4) mRNA (in aqueous solution, 20 μl of 0.1 μg/μl from stock solution of 1 μg/μl) in the amounts indicated in the table below were injected into the thigh muscle of each animal, with or without TPCS2a in the amounts indicated.
(§5) […] Animals 7-12 were not illuminated. 20 hours after the injections the animals were analysed by IVIS and assayed for luciferase activity (Luciferase Assay System, Promega, Cat #E1500) in muscle homogenates.
(§6) • 1. 20-24 hours after light (or TPCS2a injection), mice were given an intraperitoneal injection of 3 mg D-Luciferin (200 μl of 15 mg/ml stock). • 2. After approximately 10 minutes the mice were anaesthetized by a subcutaneous injection of Zoletil (15 mg/kg xylasin, 7.5 mg/kg butorphanol, 9 mg/kg zolazepam, and 9 mg tiletamine) • 3. 20 minutes after D-luciferin (Caliper Life Sciences) injection, the mice were placed in the IVIS instrument (IVIS Spectrum, model 124375R from PerkinElmer, Andor camera IS0825R4582; iKon Living Image version: 4.5.2.18424. Binning factor: 8; Excitation filter: Block; Emission filter: Open; f Number: 1) and pictures were taken with automatic exposure of Luminescence. • 4. Bio-luminescence is expressed as “Total Flux” (photon/second)×10^5.

BL/6 mice = assay: Conclusions from Examples: fold increase (PCI/mRNA alone), IVIS and luciferase assay; format: in vivo; conditions: illumination 30 seconds after mRNA/photosensitiser injection
Method: Good correspondence between the IVIS and luciferase assay results was observed. The fold increase (PCI/mRNA alone) with illumination only 30 seconds after mRNA/photosensitiser injection is higher than has been achieved in earlier experiments in which illumination was conducted 60 minutes after injection (3-5 times improvement). The improvement relative to using no photosensitiser is in the order of 30 fold. Shorter contact times were also effective at very low photosensitiser dose allowing for reduced side effects in subjects.

BL/6 mouse skin [2] = assay: Intradermal naked mRNA delivery, IVIS bio-luminescence imaging of injection sites; format: in vivo, mice; conditions: Example 5: intradermal, 2 μg mRNA + 0.003 μg TPCS2a, blue light 30 seconds after administration
Method: as §6
(§7) The materials and methods were as used in Example 1, except that the administration was intradermal and blue light was used (wavelength between 400 and 540 nm with a peak at around 435 nm from the LumiSource illumination device produced by PCI Biotech AS, with a 13 mW/cm^2 fluence rate—a 6 minute illumination delivers 4.7 J/cm^2). Luciferase activity was assessed as set out in Example 1 except that skin homogenates were used.
The materials and methods were as used in Example 2. Animals were injected at two sites (left or right). IVIS was examined as set out in Example 1. […]

BL/6 mouse skin [3] = assay: Intradermal naked mRNA delivery, luciferase assay in skin homogenates; format: in vivo, mice
Method: (§8) Muscle homogenates were prepared from frozen tissue samples using a Precelly homogenizer and lysis buffer with phosphatase and protease inhibitors (MSD, Cat. No. R60TX-2, R70AA-1). Protein analysis was performed using the DC Protein Assay (Biorad). Luciferase is expressed as relative units (RLU=relative luminescence units) per mass of protein in the samples.
as §7
The materials and methods were as used in Example 2. Luciferase activity was assessed as set out in Example 1 except that skin homogenates were used.
The materials and methods were as used in Example 3 but with even lower doses. Luciferase activity was assessed as set out in Example 1 except that skin homogenates were used.

[4] = system: thigh muscle of C57BL/6 mice; assay: Intramuscular naked mRNA delivery, luciferase assay in muscle homogenates; format: in vivo
Excerpt: as §1, §2, §3, §4, §5, §8

[5] = Example 6: intramuscular, 2 μg mRNA + 0.0003 or 0.0001 μg TPCS2a, blue light 30 seconds after injection

tetraphenyl chlorin disulfonate [TPCS2a]
bio-luminescence of PCI sites vs control sites receiving mRNA only ([1]; Example 1: intramuscular, 2 μg mRNA + 0.0003 μg TPCS2a, red light 1 J/cm^2 5 minutes after injection): significantly stronger luminescence
bio-luminescence of PCI sites vs control sites receiving mRNA only [1, 5]: significantly stronger luminescence
bio-luminescence, effect of PCI at very low dose ([1]; Example 10: intramuscular, 2 μg mRNA + 0.000003 μg TPCS2a, red light 1 J/cm^2, 5 minute interval): An effect was observed
increase of bio-luminescence by PCI ([1]; Example 10: intramuscular, 2 μg mRNA + 0.0001 μg TPCS2a, red light 1 J/cm^2, 5 minute interval): 5 fold
increase of bio-luminescence by PCI ([1]; Example 10: intramuscular, 2 μg mRNA + 0.0003 μg TPCS2a, red light 1 J/cm^2, 5 minute interval): 7 fold
improvement of fold increase (PCI/mRNA alone) with illumination 30 seconds after injection over earlier experiments with illumination 60 minutes after injection (BL/6 mice): 3-5 times
improvement relative to using no photosensitiser (BL/6 mice): ~30 fold
increase of bio-luminescence of PCI sites vs control sites receiving mRNA only (BL/6 mouse skin [2]): around 7.2 fold
enhancement of mRNA delivery (luciferase assay), longer contact times (BL/6 mouse skin [3]; Example 2: intradermal, 2 μg mRNA + 0.003 μg TPCS2a, blue light, 30 or 60 min contact time): much less effective
enhancement of mRNA delivery (luciferase assay) vs mRNA alone (BL/6 mouse skin [3]; Example 2: intradermal, 2 μg mRNA + 0.003 μg TPCS2a, blue light, 10 minute contact time): about 20 times
luciferase activity in skin, effectiveness by photosensitiser dose (BL/6 mouse skin [3]; Example 3: intradermal, 2 μg mRNA + 0.003 μg TPCS2a (vs 0.01 and 0.05 μg), blue light 30 seconds after injection): more effective than higher doses
luciferase activity in skin, effectiveness at lower dose (BL/6 mouse skin [3]; Example 4: intradermal, 2 μg mRNA + 0.0003 μg TPCS2a, blue light 30 seconds after injection): effective
mean fold of increase for the PCI treated sites vs mRNA only sites (luciferase assay) ([4]; Example 1: intramuscular, 2 μg mRNA + 0.0003 μg TPCS2a, red light 652 nm 1 J/cm^2 5 minutes after injection, 20 hours): 4.9 times
effectiveness of low photosensitiser dose (luminescence and luciferase activity) ([4]; Example 6: intramuscular, 2 μg mRNA + 0.0001 μg TPCS2a, blue light 30 seconds after injection): highly effective
luciferase activity of PCI sites vs control sites receiving mRNA only [4, 5]: significantly stronger
luciferase activity in muscle, effectiveness at lower dose ([4]; Example 7: intramuscular, 2 μg mRNA + 0.0003 μg TPCS2a, blue light 30 seconds after injection): effective
luciferase activity in muscle, effectiveness by photosensitiser dose ([4]; Example 8: intramuscular, 2 μg mRNA + 0.0003 μg TPCS2a (vs 0.003 and 0.1 μg), blue light 10 minutes after injection): more effective than the higher doses
increase by PCI (luciferase assay) ([4]; Example 9: intramuscular, 2 μg mRNA + 0.0001 μg TPCS2a, red light 0.3 to 3 J/cm^2, 5 minute interval): 8-9 fold
effect of PCI (luciferase assay), 10 minute interval ([4]; Example 9: intramuscular, 2 μg mRNA + 0.0001 μg TPCS2a, red light 0.3 to 3 J/cm^2, 10 minute interval): effective but not at the same levels as the 5 minute interval
